MIC data for one compound are collected here from US20050032861A1, “Oxazolidines containing a sulfonimid group as antibiotics” (priority 2001, published 2005).

In brackets after ≈: the same amount, converted by molar mass.

What all share (type): cell-based
One test has as its system Haemophilus influenzae. Nature of the test: MIC, broth-dilution, fastidious Gram negative organisms. To be noted: hemin and NAD, 24 h at 37° C. Here is the method:
(§1) The following results were obtained on a standard in-vitro test system. The activity is described in terms of the minimum inhibitory concentration (MIC) determined by the broth-dilution technique with an inoculum size of 5×10^4 CFU/spot. Typically, compounds are active in the range 0.01 to 256 μg/ml. Fastidious Gram negative organisms were tested in Mueller-Hinton broth supplemented with hemin and NAD, grown aerobically for 24 h at 37° C., and with an innoculum of 5×10^4 CFU/well.

For the next test, the system named is Moraxella catarrhalis. The description is as above. Particulars: hemin and NAD, 24 h at 37° C. Here is the method: as §1
Test [1] deals with Staphylococcus aureus MSQS. Nature of the test: MIC, broth-dilution, Staphylococci in broth. Particulars: Staphylococcus aureus MSQS (methicillin sensitive and quinolone sensitive); 37° C., 16-24 hours. Here is the method:
(§2) The following results were obtained on a standard in-vitro test system. The activity is described in terms of the minimum inhibitory concentration (MIC) determined by the broth-dilution technique with an inoculum size of 5×10^4 CFU/spot. Typically, compounds are active in the range 0.01 to 256 μg/ml.
(§3) Staphylococci were tested in broth using an inoculum of 5×10^4 CFU/spot and an incubation temperature of 37° C. for 16-24 hours.
(§4) • MSQS=methicillin sensitive and quinolone sensitive • MRQR=methincillin resistant and quinolone resistant

Test [2] relates to Staphylococcus aureus MRQR. Description: MIC, broth-dilution, Staphylococci in broth. To be noted: Staphylococcus aureus MRQR (methicillin resistant and quinolone resistant); 37° C., 16-24 hours. Here is the method: as §2, §3, §4
The test system of a further test is Streptococcus pyogenes. Nature of the test: MIC, broth-dilution, Streptococci in Mueller-Hinton broth with horse blood. Particulars: 37° C. aerobically, 24 hours. Here is the method: (§5) The following results were obtained on a standard in-vitro test system. The activity is described in terms of the minimum inhibitory concentration (MIC) determined by the broth-dilution technique with an inoculum size of 5×10^4 CFU/spot. Typically, compounds are active in the range 0.01 to 256 μg/ml. Streptococci were tested in Mueller-Hinton broth supplemented with 2.5% clarified lake horse blood with an innoculum of 10^4 CFU/well and an incubation temperature of 37° C. aerobically for 24 hours.

Another test relates to Streptococcus pneumoniae. The test is described as above. To be noted: 37° C. aerobically, 24 hours. Here is the method: as §5

As for `N=S1(=O)CC=C(c2c(F)cc(N3C[C@H](Cn4ccnn4)OC3=O)cc2F)CC1` (stereo partly drawn) [Example 2, (5R)-3-[3,5-Difluoro-4-(1RS-1-imino-1-oxo-3,6-dihydrothiopyran-4-yl)-phenyl]-5-(1H-1,2,3-triazol-1-ylmethyl)-2-oxazolidinone], the MIC in the test on Haemophilus influenzae turned out to be 8 µg/mL (≈ 19.5 µM); in the test on Moraxella catarrhalis, 8 µg/mL (≈ 19.5 µM); in test [1], 1 µg/mL (≈ 2.44 µM); in test [2], 8 µg/mL (≈ 19.5 µM); in the test on Streptococcus pyogenes, 2 µg/mL (≈ 4.88 µM); in the test with Streptococcus pneumoniae, 2 µg/mL (≈ 4.88 µM).
